According to ChEMBL document CHEMBL4507328, “Data for DCP probe BAY-390” (2021):
Calls of active or inactive are those of the source. No cut-off for these calls is given here.

Key:
[1] = molecular target: 5-hydroxytryptamine receptor 1D (Homo sapiens) (UniProt P28221); settings: Compound concentration 10.0 uM
[2] = molecular target: 5-hydroxytryptamine receptor 2A (Homo sapiens, UniProt P28223); assay: GPCRScan assay: inhibition of 5-HT2A; design: radioligand conc. used [nm] 1.2 – 2.4, parental cells HEKT
[3] = molecular target: B1 bradykinin receptor (Homo sapiens) (UniProt P46663); assay: Inhibition of Bradykinin B1 at 10 µM in the Eurofins-Panlabs radioligand binding assay (Eurofins_assay_212510); settings: Compound concentration 10.0 uM
Estrogen receptor = Estrogen receptor (Homo sapiens, UniProt P03372); assay: Inhibition of Estrogen ERalpha at compound concentration of 10.0 uM in the Eurofins-Panlabs radioligand binding assay (Eurofins_assay_226010); design: ligand concentration 0.5 nM, non-specific ligand with concentration 1 uM Diethylstilbestrol, incubation time 2 h, incubation temperature 25 C
[4] = molecular target: T1, Sodium-dependent dopamine transporter (Homo sapiens, UniProt Q01959); assay: Inhibition of Transporter, Dopamine (DAT) at compound concentration of 10.0 uM in the Eurofins-Panlabs radioligand binding assay (Eurofins_assay_220320); design: ligand concentration 0.15 nM, non-specific ligand with concentration 10 uM Nomifensine, incubation time 3 h, incubation temperature 4 C
[5] = molecular target: ANK_REP_REGION domain-containing protein (Cavia porcellus, UniProt H0VJD1); assay: FLIPR Ca2+ assay (guinea pig TRPA1)
[6] = molecular target: Voltage-dependent T-type calcium channel subunit alpha-1H (Homo sapiens, UniProt O95180); assay: Selectivity screen (CACNA1H)
[7] = molecular target: D(1A) dopamine receptor (Homo sapiens) (UniProt P21728); settings: Compound concentration 10.0 uM
[8] = molecular target: GABA-A receptor; anion channel (Rattus norvegicus) (UniProt O09028+P15431+P18506+P18508+P19969+P20236+P23574+P23576+P28471+P28473+P30191+P62813+P63079+P63138+Q91ZM7+Q9ES14); settings: Compound concentration 10.0 uM
[9] = molecular target: Adenosine receptor A3 (Homo sapiens) (UniProt P0DMS8); settings: Compound concentration 10.0 uM
[10] = molecular target: Beta-1 adrenergic receptor (Homo sapiens) (UniProt P08588); settings: Compound concentration 10.0 uM
[11] = molecular target: Endothelin-1 receptor (Homo sapiens) (UniProt P25101); settings: Compound concentration 10.0 uM
[12] = molecular target: Endothelin receptor type B (Homo sapiens) (UniProt P24530); settings: Compound concentration 10.0 uM
[13] = molecular target: Glutamate NMDA receptor (Rattus norvegicus) (UniProt P35439+Q00959+Q00960+Q00961+Q62645+Q8VHN2+Q9R1M7); settings: Compound concentration 10.0 uM
[14] = molecular target: Histamine H1 receptor (Homo sapiens) (UniProt P35367); settings: Compound concentration 10.0 uM
Histamine H2 receptor = Histamine H2 receptor (Homo sapiens, UniProt P25021); settings: Compound concentration 10.0 uM
[15] = molecular target: T2, Muscarinic acetylcholine receptor M1 (Homo sapiens) (UniProt P11229); settings: Compound concentration 10.0 uM
T2 sequence (whole entry): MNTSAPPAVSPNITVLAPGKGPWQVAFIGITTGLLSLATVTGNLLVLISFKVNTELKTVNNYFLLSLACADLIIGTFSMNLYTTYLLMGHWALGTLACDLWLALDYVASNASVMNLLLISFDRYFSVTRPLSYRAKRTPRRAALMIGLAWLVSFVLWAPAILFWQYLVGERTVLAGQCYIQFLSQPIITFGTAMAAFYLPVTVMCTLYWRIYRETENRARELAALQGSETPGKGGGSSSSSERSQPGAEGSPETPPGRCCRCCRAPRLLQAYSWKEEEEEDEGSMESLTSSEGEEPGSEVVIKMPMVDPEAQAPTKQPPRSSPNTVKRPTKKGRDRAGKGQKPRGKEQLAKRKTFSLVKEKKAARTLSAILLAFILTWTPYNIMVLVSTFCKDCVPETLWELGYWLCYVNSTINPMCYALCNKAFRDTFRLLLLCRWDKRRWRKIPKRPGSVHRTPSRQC

[16] = molecular target: T3, Muscarinic acetylcholine receptor M2 (Homo sapiens) (UniProt P08172); settings: Compound concentration 10.0 uM
T3 sequence (whole entry): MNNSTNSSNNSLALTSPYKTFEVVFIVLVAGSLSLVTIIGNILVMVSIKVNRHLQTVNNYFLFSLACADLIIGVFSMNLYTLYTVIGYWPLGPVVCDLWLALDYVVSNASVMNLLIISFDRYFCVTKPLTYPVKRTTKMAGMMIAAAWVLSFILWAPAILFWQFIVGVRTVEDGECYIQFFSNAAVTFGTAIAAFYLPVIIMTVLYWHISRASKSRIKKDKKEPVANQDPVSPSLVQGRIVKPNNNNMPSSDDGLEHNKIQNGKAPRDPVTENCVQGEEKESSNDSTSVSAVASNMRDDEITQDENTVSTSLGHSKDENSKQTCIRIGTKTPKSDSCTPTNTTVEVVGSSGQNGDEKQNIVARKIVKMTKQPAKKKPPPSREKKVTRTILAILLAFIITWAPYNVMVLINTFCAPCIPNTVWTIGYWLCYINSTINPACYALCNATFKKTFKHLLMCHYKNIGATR

[17] = molecular target: 5-hydroxytryptamine receptor 2B (Homo sapiens) (UniProt P41595); settings: Compound concentration 10.0 uM
[18] = molecular target: T1, Sodium-dependent dopamine transporter; settings: Compound concentration 10.0 uM
[19] = molecular target: Sodium-dependent noradrenaline transporter (Homo sapiens) (UniProt P23975); settings: Compound concentration 10.0 uM
[20] = molecular target: T4, Muscarinic acetylcholine receptor M4 (Homo sapiens) (UniProt P08173); settings: Compound concentration 10.0 uM
T4 sequence (whole entry): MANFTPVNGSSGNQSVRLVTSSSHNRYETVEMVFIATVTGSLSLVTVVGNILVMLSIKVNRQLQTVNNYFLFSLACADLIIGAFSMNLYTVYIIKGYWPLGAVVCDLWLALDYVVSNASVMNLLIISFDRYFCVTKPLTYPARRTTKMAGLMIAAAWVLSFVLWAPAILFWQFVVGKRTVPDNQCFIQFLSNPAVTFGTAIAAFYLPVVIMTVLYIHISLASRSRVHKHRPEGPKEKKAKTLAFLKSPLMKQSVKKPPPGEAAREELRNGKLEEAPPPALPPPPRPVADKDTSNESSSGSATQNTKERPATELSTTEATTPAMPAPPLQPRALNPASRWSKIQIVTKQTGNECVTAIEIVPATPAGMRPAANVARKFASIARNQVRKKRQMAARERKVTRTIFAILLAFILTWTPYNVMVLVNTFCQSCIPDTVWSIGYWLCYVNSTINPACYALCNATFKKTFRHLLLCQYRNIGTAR

[21] = molecular target: Vasopressin V1a receptor (Homo sapiens) (UniProt P37288); settings: Compound concentration 10.0 uM
Vasopressin V1a receptor (Homo sapiens), sequence (P37288 whole entry, looked up): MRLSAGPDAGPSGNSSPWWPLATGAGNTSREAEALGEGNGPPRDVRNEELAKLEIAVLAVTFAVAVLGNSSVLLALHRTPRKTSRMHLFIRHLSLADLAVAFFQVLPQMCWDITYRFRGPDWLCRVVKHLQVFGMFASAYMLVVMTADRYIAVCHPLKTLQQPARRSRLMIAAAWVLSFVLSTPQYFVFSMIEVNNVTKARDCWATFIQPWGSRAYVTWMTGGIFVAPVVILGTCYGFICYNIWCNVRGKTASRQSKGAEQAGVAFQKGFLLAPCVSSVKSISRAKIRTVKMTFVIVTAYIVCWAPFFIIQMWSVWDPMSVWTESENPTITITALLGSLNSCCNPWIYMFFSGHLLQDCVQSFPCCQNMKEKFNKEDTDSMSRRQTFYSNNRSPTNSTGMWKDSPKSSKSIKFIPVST

T1 sequence (Q01959 whole entry, the tested form may be a part): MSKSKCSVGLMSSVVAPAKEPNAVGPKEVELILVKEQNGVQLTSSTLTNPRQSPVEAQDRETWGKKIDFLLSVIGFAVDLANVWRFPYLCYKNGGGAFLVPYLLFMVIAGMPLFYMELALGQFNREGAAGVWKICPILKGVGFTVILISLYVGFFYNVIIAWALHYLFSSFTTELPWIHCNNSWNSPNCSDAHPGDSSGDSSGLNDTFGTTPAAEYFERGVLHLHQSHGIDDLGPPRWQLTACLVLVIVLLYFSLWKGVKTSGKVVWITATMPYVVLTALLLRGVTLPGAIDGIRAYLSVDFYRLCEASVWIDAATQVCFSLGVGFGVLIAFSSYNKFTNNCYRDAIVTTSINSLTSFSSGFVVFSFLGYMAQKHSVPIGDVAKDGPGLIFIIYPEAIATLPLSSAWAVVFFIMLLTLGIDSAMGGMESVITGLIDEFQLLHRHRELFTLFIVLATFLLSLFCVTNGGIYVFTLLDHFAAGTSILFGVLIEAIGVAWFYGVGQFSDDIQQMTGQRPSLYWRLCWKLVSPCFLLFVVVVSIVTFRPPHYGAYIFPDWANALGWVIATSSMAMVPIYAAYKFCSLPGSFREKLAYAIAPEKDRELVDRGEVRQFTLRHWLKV
Estrogen receptor, sequence (P03372 whole entry): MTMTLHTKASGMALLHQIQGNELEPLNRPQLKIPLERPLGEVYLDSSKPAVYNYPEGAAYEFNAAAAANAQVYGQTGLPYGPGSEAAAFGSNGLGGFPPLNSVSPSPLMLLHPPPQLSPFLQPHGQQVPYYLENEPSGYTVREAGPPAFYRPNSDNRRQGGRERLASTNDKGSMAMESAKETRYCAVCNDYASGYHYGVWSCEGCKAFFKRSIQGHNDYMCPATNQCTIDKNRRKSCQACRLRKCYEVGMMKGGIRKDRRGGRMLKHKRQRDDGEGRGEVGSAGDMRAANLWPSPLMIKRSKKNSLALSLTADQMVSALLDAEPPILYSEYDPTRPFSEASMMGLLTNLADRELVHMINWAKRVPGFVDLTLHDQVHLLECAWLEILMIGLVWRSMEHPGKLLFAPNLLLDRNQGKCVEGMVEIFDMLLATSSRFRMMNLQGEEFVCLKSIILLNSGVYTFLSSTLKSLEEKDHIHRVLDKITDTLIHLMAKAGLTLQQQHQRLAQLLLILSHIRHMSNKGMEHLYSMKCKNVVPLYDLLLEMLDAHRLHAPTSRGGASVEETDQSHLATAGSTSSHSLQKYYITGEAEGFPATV
Endothelin-1 receptor (Homo sapiens), sequence (P25101 whole entry): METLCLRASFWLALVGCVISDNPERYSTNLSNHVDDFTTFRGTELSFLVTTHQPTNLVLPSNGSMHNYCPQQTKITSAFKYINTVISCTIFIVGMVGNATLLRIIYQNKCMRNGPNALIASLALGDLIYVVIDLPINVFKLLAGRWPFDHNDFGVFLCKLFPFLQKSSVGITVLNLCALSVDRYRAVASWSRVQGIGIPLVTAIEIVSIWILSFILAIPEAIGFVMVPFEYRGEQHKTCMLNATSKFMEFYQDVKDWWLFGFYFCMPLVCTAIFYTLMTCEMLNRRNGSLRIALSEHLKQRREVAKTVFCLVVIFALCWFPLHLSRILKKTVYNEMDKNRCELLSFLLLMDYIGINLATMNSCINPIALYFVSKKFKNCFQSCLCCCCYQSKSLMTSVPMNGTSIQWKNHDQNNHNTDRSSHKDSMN
5-hydroxytryptamine receptor 2B (Homo sapiens), sequence (P41595 whole entry): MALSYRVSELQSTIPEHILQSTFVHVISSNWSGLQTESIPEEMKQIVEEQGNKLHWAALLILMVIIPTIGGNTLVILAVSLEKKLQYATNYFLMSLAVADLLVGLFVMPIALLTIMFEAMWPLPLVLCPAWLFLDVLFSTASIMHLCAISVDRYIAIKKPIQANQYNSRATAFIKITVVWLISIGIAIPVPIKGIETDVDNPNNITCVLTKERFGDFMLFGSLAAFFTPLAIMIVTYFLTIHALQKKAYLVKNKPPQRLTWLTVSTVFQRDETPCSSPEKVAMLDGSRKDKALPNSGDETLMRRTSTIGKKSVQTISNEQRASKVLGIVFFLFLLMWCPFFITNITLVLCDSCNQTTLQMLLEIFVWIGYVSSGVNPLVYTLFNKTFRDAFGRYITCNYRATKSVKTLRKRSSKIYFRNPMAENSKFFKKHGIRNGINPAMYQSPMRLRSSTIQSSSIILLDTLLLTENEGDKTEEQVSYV
ANK_REP_REGION domain-containing protein, sequence (H0VJD1 whole entry, the tested form may be a part): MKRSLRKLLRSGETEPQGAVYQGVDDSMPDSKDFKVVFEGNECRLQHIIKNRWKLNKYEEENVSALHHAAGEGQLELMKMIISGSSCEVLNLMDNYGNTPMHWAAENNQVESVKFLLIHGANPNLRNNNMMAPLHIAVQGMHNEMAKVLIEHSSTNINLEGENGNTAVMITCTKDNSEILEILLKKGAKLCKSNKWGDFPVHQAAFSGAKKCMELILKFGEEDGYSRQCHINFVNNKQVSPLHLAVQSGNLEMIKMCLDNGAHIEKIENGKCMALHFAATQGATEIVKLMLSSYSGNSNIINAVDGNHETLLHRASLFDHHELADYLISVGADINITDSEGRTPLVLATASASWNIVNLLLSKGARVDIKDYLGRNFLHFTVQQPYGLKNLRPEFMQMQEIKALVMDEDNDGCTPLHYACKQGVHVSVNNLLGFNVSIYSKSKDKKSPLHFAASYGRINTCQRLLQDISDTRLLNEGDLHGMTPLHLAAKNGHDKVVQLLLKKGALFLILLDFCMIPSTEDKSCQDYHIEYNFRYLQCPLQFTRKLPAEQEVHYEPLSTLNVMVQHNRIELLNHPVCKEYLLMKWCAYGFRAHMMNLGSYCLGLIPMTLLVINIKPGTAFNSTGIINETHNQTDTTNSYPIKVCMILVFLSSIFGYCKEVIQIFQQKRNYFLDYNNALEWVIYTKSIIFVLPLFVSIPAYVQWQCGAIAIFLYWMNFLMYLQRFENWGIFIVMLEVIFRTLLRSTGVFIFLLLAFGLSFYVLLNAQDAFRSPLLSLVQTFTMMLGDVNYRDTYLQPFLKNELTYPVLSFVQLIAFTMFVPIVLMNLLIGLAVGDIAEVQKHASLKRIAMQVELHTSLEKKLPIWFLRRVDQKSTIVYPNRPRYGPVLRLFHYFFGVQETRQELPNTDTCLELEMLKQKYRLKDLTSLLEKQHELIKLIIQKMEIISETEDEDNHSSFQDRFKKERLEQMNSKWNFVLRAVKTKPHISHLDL
Histamine H2 receptor, sequence (P25021 whole entry): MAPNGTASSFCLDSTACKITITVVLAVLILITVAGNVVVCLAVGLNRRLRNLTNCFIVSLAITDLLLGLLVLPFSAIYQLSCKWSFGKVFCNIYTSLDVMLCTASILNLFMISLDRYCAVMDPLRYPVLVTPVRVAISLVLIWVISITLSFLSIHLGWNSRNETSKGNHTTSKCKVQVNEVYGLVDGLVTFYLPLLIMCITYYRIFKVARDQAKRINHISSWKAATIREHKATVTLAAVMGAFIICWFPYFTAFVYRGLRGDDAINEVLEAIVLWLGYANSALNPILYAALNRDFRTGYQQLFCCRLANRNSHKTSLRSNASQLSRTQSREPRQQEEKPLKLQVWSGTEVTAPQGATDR
Histamine H1 receptor (Homo sapiens), sequence (P35367 whole entry): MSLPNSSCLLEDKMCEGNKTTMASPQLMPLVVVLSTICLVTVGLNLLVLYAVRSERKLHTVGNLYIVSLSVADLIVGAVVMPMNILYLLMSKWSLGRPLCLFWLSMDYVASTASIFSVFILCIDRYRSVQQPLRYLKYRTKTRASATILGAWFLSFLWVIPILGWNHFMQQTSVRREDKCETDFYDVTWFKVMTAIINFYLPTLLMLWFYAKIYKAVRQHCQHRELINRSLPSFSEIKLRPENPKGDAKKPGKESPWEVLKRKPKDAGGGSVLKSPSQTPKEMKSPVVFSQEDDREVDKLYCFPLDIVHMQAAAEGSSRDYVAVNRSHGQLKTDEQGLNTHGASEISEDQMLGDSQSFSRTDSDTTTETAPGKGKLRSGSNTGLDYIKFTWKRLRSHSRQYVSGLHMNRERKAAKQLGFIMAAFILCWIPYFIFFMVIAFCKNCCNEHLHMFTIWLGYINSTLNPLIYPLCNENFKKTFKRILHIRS
D(1A) dopamine receptor (Homo sapiens), sequence (P21728 whole entry): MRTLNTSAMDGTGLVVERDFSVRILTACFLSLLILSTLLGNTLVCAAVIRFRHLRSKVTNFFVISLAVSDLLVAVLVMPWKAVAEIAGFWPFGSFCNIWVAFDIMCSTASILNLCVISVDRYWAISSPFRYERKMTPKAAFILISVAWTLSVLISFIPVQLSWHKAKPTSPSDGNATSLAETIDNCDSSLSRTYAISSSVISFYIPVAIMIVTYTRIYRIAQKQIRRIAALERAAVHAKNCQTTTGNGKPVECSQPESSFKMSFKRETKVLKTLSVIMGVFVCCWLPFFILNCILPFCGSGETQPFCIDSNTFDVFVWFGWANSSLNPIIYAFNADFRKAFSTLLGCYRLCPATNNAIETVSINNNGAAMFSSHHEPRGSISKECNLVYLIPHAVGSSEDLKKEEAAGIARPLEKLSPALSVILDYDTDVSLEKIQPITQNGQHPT

SMILES: COc1cc(N[C@@H]2CCCC[C@]2(O)C(F)(F)F)ccc1F [BAY-9897]
- inhibition [1]: 2.77%

SMILES: O[C@]1(C(F)(F)F)CCCC[C@H]1Nc1ccc(F)cc1 [BAY-390]
- Ki [2]: 2580 nM
- inhibition [3]: 9%
- IC50 (Estrogen receptor): 2500 nM
- Ki (Estrogen receptor): 720 nM
- IC50 [4]: 1200 nM
- Ki [4]: 940 nM
- IC50 [5]: 68 nM (active)
- IC50 [6]: > 30000 nM (not active)
- inhibition [7]: 15.6%
- inhibition [8]: 19.7%
- inhibition [9]: 4%
- inhibition [10]: 3%
- inhibition [11]: 7%
- inhibition [12]: -4%
- inhibition [13]: 5%
- inhibition [14]: 6%
- inhibition (Histamine H2 receptor): -8%
- inhibition [15]: -1%
- inhibition [16]: -2%
- inhibition [17]: -4%
- inhibition [18]: 84%
- inhibition [19]: 16%
- inhibition [20]: 14%
- inhibition [21]: -7%
